Literature values, collected in patent US20210339043A1, “NEURAL STIMULATION VIA VISUAL STIMULATION” (Cognito Therapeutics, Inc., priority 2016, published 2021).

Conditions: 70 kg adult; for estimated absorbed radiation dose, Adrenals: organ: Adrenals; for estimated absorbed radiation dose, Brain: organ: Brain; for estimated absorbed radiation dose, Breasts: organ: Breasts; for estimated absorbed radiation dose, Heart Wall: organ: Heart Wall; for estimated absorbed radiation dose, Kidneys: organ: Kidneys; for estimated absorbed radiation dose, Lungs: organ: Lungs; for estimated absorbed radiation dose, Muscle: organ: Muscle; for estimated absorbed radiation dose, Ovaries: organ: Ovaries; for estimated absorbed radiation dose, Pancreas: organ: Pancreas; for estimated absorbed radiation dose, Red marrow: organ: Red marrow; for estimated absorbed radiation dose, Skin: organ: Skin; for estimated absorbed radiation dose, Spleen: organ: Spleen; for estimated absorbed radiation dose, Testes: organ: Testes; for estimated absorbed radiation dose, Thymus: organ: Thymus; for estimated absorbed radiation dose, Thyroid: organ: Thyroid; for estimated absorbed radiation dose, Urinary bladder wall: organ: Urinary bladder wall; for estimated absorbed radiation dose, Uterus: organ: Uterus

Structure (SMILES) | estimated absorbed radiation dose, Adrenals | estimated absorbed radiation dose, Brain | estimated absorbed radiation dose, Breasts | estimated absorbed radiation dose, Heart Wall | estimated absorbed radiation dose, Kidneys | estimated absorbed radiation dose, Lungs | estimated absorbed radiation dose, Muscle | estimated absorbed radiation dose, Ovaries | estimated absorbed radiation dose, Pancreas | estimated absorbed radiation dose, Red marrow | estimated absorbed radiation dose, Skin | estimated absorbed radiation dose, Spleen | estimated absorbed radiation dose, Testes | estimated absorbed radiation dose, Thymus | estimated absorbed radiation dose, Thyroid | estimated absorbed radiation dose, Urinary bladder wall | estimated absorbed radiation dose, Uterus | also measured
CNc1ccc(/C=C/c2ccc(OCCOCCOCC[18F])nc2)cc1 [18F-AV-45] | 0.05 rad/mCi | 0.037 rad/mCi | 0.023 rad/mCi | 0.048 rad/mCi | 0.048 rad/mCi | 0.032 rad/mCi | 0.032 rad/mCi | 0.065 rad/mCi | 0.053 rad/mCi | 0.053 rad/mCi | 0.022 rad/mCi | 0.033 rad/mCi | 0.025 rad/mCi | 0.027 rad/mCi | 0.025 rad/mCi | 0.1 rad/mCi | 0.058 rad/mCi | –
OC[C@H]1O[C@@H](O)[C@H]([18F])[C@@H](O)[C@@H]1O [FDG] | 0.048 rad/mCi | 0.07 rad/mCi | 0.034 rad/mCi | 0.22 rad/mCi | 0.074 rad/mCi | 0.064 rad/mCi | 0.039 rad/mCi | 0.053 rad/mCi | 0.096 rad/mCi | 0.047 rad/mCi | 0.03 rad/mCi | 0.14 rad/mCi | 0.041 rad/mCi | 0.044 rad/mCi | 0.039 rad/mCi | 0.32 rad/mCi | 0.062 rad/mCi | critical organ (radiation dose): urinary bladder wall, followed by heart, spleen and pancreas; estimated absorbed radiation dose, Gallbladder Wall (organ: Gallbladder Wall): 0.049 rad/mCi; estimated absorbed radiation dose, Liver (organ: Liver): 0.058 rad/mCi; estimated absorbed radiation dose, Lower Large Intestine Wall (organ: Lower Large Intestine Wall): 0.051 rad/mCi; estimated absorbed radiation dose, Small Intestine (organ: Small Intestine): 0.047 rad/mCi; estimated absorbed radiation dose, Upper Large Intestine Wall (organ: Upper Large Intestine Wall): 0.046 rad/mCi
